Laboratory results published in ChEMBL document CHEMBL1201862, “PubChem BioAssay data set” (2004).
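Growth conditions: 96-well plates. Treatment: test compound, 48 hours, 5 concentrations. Analysis: linear interpolation between bracketing concentrations; unreached endpoints set to highest concentration. Here, GI50 denotes the concentration required for 50% inhibition of growth.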 Active and inactive are the calls of the source. Cut-off read from the data, not from the text of the source: active = GI50 up to about 1.1 µM and inactive = higher.

Assays:
Assay in all cases: inhibition of tumour cell growth, NCI panel, 48 h
[1] = test system: KM12
[2] = test system: A498
[3] = test system: HL-60
[4] = test system: U-251
[5] = test system: SK-MEL-2
[6] = test system: UACC-257
[7] = test system: HOP-62
[8] = test system: NCI-H23
[9] = test system: K562
[10] = test system: RXF 393
[11] = test system: HT-29
[12] = test system: SN12C
[13] = test system: CAKI-1
[14] = test system: HOP-92
[15] = test system: RPMI-8226
[16] = test system: HCC 2998
[17] = test system: NCI-H522
[18] = test system: A549
[19] = test system: TK-10
[20] = test system: SR

Row | Structure (SMILES) | GI50 [1] | GI50 [2] | GI50 [3] | GI50 [4] | GI50 [5] | GI50 [6] | GI50 [7] | GI50 [8] | GI50 [9] | GI50 [10] | GI50 [11] | GI50 [12] | GI50 [13] | GI50 [14] | GI50 [15] | GI50 [16] | GI50 [17] | GI50 [18] | GI50 [19] | GI50 [20]
1 | CN(C)C(=O)Oc1c(Br)cc(Br)cc1C(=O)OCc1ccccc1 | 28.7 µM (inactive) | 23 µM (inactive) | 21.4 µM (inactive) | 21.6 µM (inactive) | 27.7 µM (inactive) | 26.5 µM (inactive) | 28.2 µM (inactive) | 30.6 µM (inactive) | 28.2 µM (inactive) | 38.4 µM (inactive) | 13.5 µM (inactive) | 20.8 µM (inactive) | 23.3 µM (inactive) | 16.8 µM (inactive) | 19.5 µM (inactive) | 36.1 µM (inactive) | 34.8 µM (inactive) | 28.1 µM (inactive) |  | 
2 | COc1ccc(/N=C\c2ccc(N(CCC#N)S(=O)(=O)c3ccccc3)cc2C)cc1 |  |  | 16.9 µM (inactive) | > 100 µM (inactive) | 23.3 µM (inactive) | 39.5 µM (inactive) | 25.1 µM (inactive) | 43 µM (inactive) | 11.1 µM (inactive) | > 100 µM (inactive) | 53.7 µM (inactive) | > 100 µM (inactive) | 35.5 µM (inactive) | > 100 µM (inactive) | > 100 µM (inactive) | 32 µM (inactive) | > 100 µM (inactive) | 26.5 µM (inactive) | 22.9 µM (inactive) | 7.96 µM (inactive)
3 | O=C(CCCn1cnc([N+](=O)[O-])n1)NCCn1ccnc1[N+](=O)[O-] | > 100 µM (inactive) |  | > 100 µM (inactive) | > 100 µM (inactive) | > 100 µM (inactive) | > 100 µM (inactive) | > 100 µM (inactive) | > 100 µM (inactive) | > 100 µM (inactive) | > 100 µM (inactive) | > 100 µM (inactive) |  | > 100 µM (inactive) | 61.7 µM (inactive) | > 100 µM (inactive) |  | > 100 µM (inactive) | > 100 µM (inactive) | > 100 µM (inactive) | > 100 µM (inactive)
4 | O=C1CCCC/C1=C1/SC(=N/c2ccccc2)/C(=N\c2ccccc2)N1c1ccccc1 | > 100 µM (inactive) | > 100 µM (inactive) | > 100 µM (inactive) | > 100 µM (inactive) | > 100 µM (inactive) |  | 36.1 µM (inactive) | > 100 µM (inactive) | > 100 µM (inactive) | 0.0378 µM (active) | > 100 µM (inactive) | > 100 µM (inactive) | > 100 µM (inactive) | > 100 µM (inactive) | > 100 µM (inactive) | > 100 µM (inactive) | > 100 µM (inactive) |  |  | > 100 µM (inactive)
5 | COc1ccc2c(O)c3[n+](cc2c1OC)CCc1cc2c(cc1-3)OCO2 | 66.1 µM (inactive) | 61.5 µM (inactive) | 33.2 µM (inactive) | > 100 µM (inactive) | > 100 µM (inactive) | > 100 µM (inactive) | > 100 µM (inactive) | > 100 µM (inactive) | 38.5 µM (inactive) | 25.4 µM (inactive) | 63.2 µM (inactive) | > 100 µM (inactive) | > 100 µM (inactive) | > 100 µM (inactive) | 84.3 µM (inactive) | > 100 µM (inactive) | 17 µM (inactive) | > 100 µM (inactive) | > 100 µM (inactive) | 39.3 µM (inactive)
6 | O=C(NNC(=S)Nc1ccccc1)c1nsc2ccccc12 | 30.4 µM (inactive) |  | 20.1 µM (inactive) | 27.1 µM (inactive) | 19.6 µM (inactive) | 33.3 µM (inactive) | 36.7 µM (inactive) | 36.6 µM (inactive) | 35.7 µM (inactive) | 40.7 µM (inactive) | 50 µM (inactive) | 31.5 µM (inactive) |  | 20.4 µM (inactive) | 16 µM (inactive) | 55 µM (inactive) |  | 28.8 µM (inactive) | 41.3 µM (inactive) | 22 µM (inactive)
7 | CS(C)(=O)=Nn1c(=O)n2n(c1=O)C1c3ccccc3C2c2ccccc21 |  | > 100 µM (inactive) | > 100 µM (inactive) | > 100 µM (inactive) | > 100 µM (inactive) | > 100 µM (inactive) | > 100 µM (inactive) | > 100 µM (inactive) | > 100 µM (inactive) | > 100 µM (inactive) | > 100 µM (inactive) |  | > 100 µM (inactive) | > 100 µM (inactive) | > 100 µM (inactive) |  | > 100 µM (inactive) | > 100 µM (inactive) | > 100 µM (inactive) | > 100 µM (inactive)
8 | CCNC(=S)NNC(=O)c1nsc2ccccc12 | 67.1 µM (inactive) |  | 59.4 µM (inactive) | 94.2 µM (inactive) | 2.88 µM (inactive) | > 100 µM (inactive) | 73.6 µM (inactive) | > 100 µM (inactive) | 64.9 µM (inactive) | 44.6 µM (inactive) | 72.1 µM (inactive) | 55.1 µM (inactive) |  | 85.7 µM (inactive) | 51.8 µM (inactive) | > 100 µM (inactive) |  | > 100 µM (inactive) | > 100 µM (inactive) | 64 µM (inactive)
9 | COc1cc([C@@H]2c3cc4c(cc3[C@H](O)[C@H]3COC(=O)[C@H]23)OCO4)cc(OC)c1OC [PODOFILOX] | < 0.005 µM (active) | < 0.005 µM (active) | < 0.005 µM (active) |  |  | 29.9 µM (inactive) |  | < 0.005 µM (active) | < 0.005 µM (active) |  | < 0.005 µM (active) |  | 0.0897 µM (active) | 0.227 µM (active) | < 0.005 µM (active) |  |  |  |  | < 0.005 µM (active)
10 | CCN(CC)/[N+]([O-])=N/O | > 100 µM (inactive) | > 100 µM (inactive) | > 100 µM (inactive) |  | > 100 µM (inactive) | > 100 µM (inactive) | > 100 µM (inactive) | > 100 µM (inactive) | > 100 µM (inactive) | > 100 µM (inactive) | > 100 µM (inactive) | > 100 µM (inactive) | > 100 µM (inactive) | > 100 µM (inactive) |  | > 100 µM (inactive) | > 100 µM (inactive) | > 100 µM (inactive) | > 100 µM (inactive) | > 100 µM (inactive)
11 | COC(=O)CN(C)P(=O)(N1CC1)N1CC1 | > 100 µM (inactive) |  | 26.9 µM (inactive) | > 100 µM (inactive) | > 100 µM (inactive) | > 100 µM (inactive) |  | 83.4 µM (inactive) | > 100 µM (inactive) | > 100 µM (inactive) | > 100 µM (inactive) | 69.5 µM (inactive) | > 100 µM (inactive) |  | > 100 µM (inactive) | > 100 µM (inactive) | > 100 µM (inactive) | > 100 µM (inactive) | > 100 µM (inactive) | 
12 | C=CCOC1OC(CS(=O)(=O)O)C(O)C(O)C1O (configuration not stated) | > 100 µM (inactive) | > 100 µM (inactive) | > 100 µM (inactive) | > 100 µM (inactive) | > 100 µM (inactive) | > 100 µM (inactive) | > 100 µM (inactive) | > 100 µM (inactive) | 27 µM (inactive) | > 100 µM (inactive) | > 100 µM (inactive) | > 100 µM (inactive) | > 100 µM (inactive) | > 100 µM (inactive) | > 100 µM (inactive) | > 100 µM (inactive) |  |  | > 100 µM (inactive) | > 100 µM (inactive)
13 | CN(C)CCOc1cc2c(c3ccccc13)-c1ccccc1C2O (configuration not stated) | 14.8 µM (inactive) | 15 µM (inactive) | 11.6 µM (inactive) | 15.5 µM (inactive) | 17.2 µM (inactive) | 15.5 µM (inactive) | 14.9 µM (inactive) | 16.9 µM (inactive) | 18.6 µM (inactive) | 1.47 µM (inactive) | 13.5 µM (inactive) | 13.4 µM (inactive) | 12.9 µM (inactive) | 6.56 µM (inactive) | 12.6 µM (inactive) | 14.4 µM (inactive) | 16 µM (inactive) | 15.5 µM (inactive) |  | 
14 | C1CSCCSCCSCCSC1 | > 100 µM (inactive) | > 100 µM (inactive) |  | > 100 µM (inactive) | > 100 µM (inactive) | > 100 µM (inactive) | > 100 µM (inactive) | > 100 µM (inactive) |  | > 100 µM (inactive) | > 100 µM (inactive) | > 100 µM (inactive) | > 100 µM (inactive) | > 100 µM (inactive) | > 100 µM (inactive) | > 100 µM (inactive) | > 100 µM (inactive) | > 100 µM (inactive) | > 100 µM (inactive) | 
15 | Cc1ccc(S(=O)(=O)NCCSS(=O)(=O)c2ccc(C)cc2)cc1 | 28.1 µM (inactive) | 11.3 µM (inactive) |  | 25.5 µM (inactive) |  | 64.1 µM (inactive) |  | 57.4 µM (inactive) | 30.7 µM (inactive) | 33.8 µM (inactive) | 22.6 µM (inactive) | 29.7 µM (inactive) |  | > 100 µM (inactive) |  | 62.5 µM (inactive) | 18.2 µM (inactive) | 25.9 µM (inactive) | > 100 µM (inactive) | 13.9 µM (inactive)
16 | Nc1nc2ccc3ccccc3c2[nH]1 | > 10 µM (inactive) | > 10 µM (inactive) | > 10 µM (inactive) | > 10 µM (inactive) | > 10 µM (inactive) |  | > 10 µM (inactive) | > 10 µM (inactive) | > 10 µM (inactive) | > 10 µM (inactive) | > 10 µM (inactive) | > 10 µM (inactive) | > 10 µM (inactive) |  | > 10 µM (inactive) | > 10 µM (inactive) | > 10 µM (inactive) | > 10 µM (inactive) | > 10 µM (inactive) | > 10 µM (inactive)
